A short description of data set [1]: Plasma pharmacokinetics after a single oral dose in fasted healthy female subjects. Type of data set: in vivo, human. The settings on record: 2 gram secnidazole microgranule formulation (70% drug in core).
The nature of data set [2]: Urine pharmacokinetics after a single oral dose in fasted healthy female subjects. Type of data set: in vivo, human. The settings on record: 2 gram secnidazole microgranule formulation (70% drug in core).

Regarding `Cc1ncc([N+](=O)[O-])n1CC(C)O` (centres unmarked) [Secnidazole, 1-(2-hydroxypropyl)-2-methyl-5-nitromidazole], in data set [1], the “λz, Mean (SD)” value was 0.0422 (0.007544) 1/h and the “λz, Median” value worked out at 0.04047 h⁻¹. Also, in data set [2], the “% FE, Geometric Mean (SD)” value is recorded as 14.991 (3.0081) %; the “% FE, Mean (SD)” value is 15.300 (3.5549) %; the “% FE, Median” value is reported as 14.943%; the “Ae0-168, Geometric Mean (SD)” value is 0.300 (0.0602) g. In addition, in data set [2], the “Ae0-168, Mean (SD)” value is 0.306 (0.0711) g and the “Ae0-168, Median” value came to 0.299 g.

For the origin of these results see patent US11253501B2, “Secnidazole formulations and use in treating bacterial vaginosis” (LUPIN INC., priority 2015, dated 2022).
